Results on 21 molecules are retold here after ChEMBL document CHEMBL3102753, “7-Azaindole-1-carboxamides as a new class of PARP-1 inhibitors” (Bioorg Med Chem, 2014).

Data set [1] relates to HCC1937. Description: Antiproliferative activity against BRCA1 gene mutated human HCC1937 cells after 72 hrs by SRB assay. The class given is functional, cell-based.
For data set [2], the target named is T1, Poly [ADP-ribose] polymerase 1 (Homo sapiens, UniProt P09874). Put plainly: Inhibition of recombinant human GST-fused PARP-1 expressed in Escherichia coli after 30 mins by fluorescence assay.
The nature of data set [3]: Antiproliferative activity against BRCA2 gene mutated human Capan1 cells after 72 hrs by cell counting. As to conditions: CAPAN-1, 72 h.
The subject of data set [4] is Mus musculus. Put plainly: Toxicity in human MX1 cells harboring BRCA1 deletion and BRCA2 mutant xenografted SCID mouse assessed as mortality at 100 mg/kg, ip administered every 2 days for 2 weeks measured on day 38 relative to control. It is filed as organism-based. On the set-up: dose 100 mg/kg, route intraperitoneal. As to conditions: in vivo.
Data set [5] concerns Mus musculus. Description: Toxicity in human MX1 cells harboring BRCA1 deletion and BRCA2 mutant xenografted SCID mouse assessed as reduction of body weight at 100 mg/kg, ip administered every 2 days for 2 weeks measured on day 38 relative to control. On the set-up: dose 100 mg/kg, route intraperitoneal; scale not given: the % may be the effect or the level left. It is filed as organism-based. As to conditions: in vivo.

Data set [6] has as its system MX1. Description: Antitumor activity against human MX1 cells harboring BRCA1 deletion and BRCA2 mutant xenografted in SCID mouse assessed as reduction of tumor volume at 100 mg/kg, ip administered every 2 days for 2 weeks measured on day 38 relative to control. On the set-up: scale not given: the % may be the effect or the level left. As to conditions: route intraperitoneal. It is filed as functional. In general terms: In xenograft studies the graft and the host belong to different species.

Data set [7] addresses T1, Poly [ADP-ribose] polymerase 1. Description: Inhibition of PARP-1 in human HeLa cells assessed as decrease of H2O2-induced PARylation after 3 hrs by fluorescence assay. It is filed as cell-based.
Data set [8] concerns A2780. Put plainly: Resistant factor, ratio of IC50 for human A2780/DX cells to IC50 for human A2780 cells. It is filed as functional.
The nature of data set [9]: Antiproliferative activity against human A2780/DX cells after 72 hrs by SRB assay. The class given is functional, cell-based.
The subject of data set [10] is A2780. Description: Antiproliferative activity against human A2780 cells after 72 hrs by SRB assay. The class given is functional, cell-based. As to conditions: A2780, 72 h. On the technique in general: Sulforhodamine B stains cellular protein and so reports cell mass.
Data set [11] deals with Mus musculus. Put plainly: Toxicity in human MX1 cells harboring BRCA1 deletion and BRCA2 mutant xenografted SCID mouse assessed as mortality at 167 mg/kg, ip administered every 2 days for 2 weeks measured on day 38 relative to control. It is filed as organism-based. On the set-up: dose 167 mg/kg, route intraperitoneal. The following applies: in vivo.
Data set [12] deals with Mus musculus. Put plainly: Toxicity in human MX1 cells harboring BRCA1 deletion and BRCA2 mutant xenografted SCID mouse assessed as reduction of body weight at 167 mg/kg, ip administered every 2 days for 2 weeks measured on day 38 relative to control. The class given is organism-based. Further details: dose 167 mg/kg, route intraperitoneal; scale not given: the % may be the effect or the level left. The following applies: in vivo.

Data set [13] has as its system MX1. Put plainly: Antitumor activity against human MX1 cells harboring BRCA1 deletion and BRCA2 mutant xenografted in SCID mouse assessed as reduction of tumor volume at 167 mg/kg, ip administered every 2 days for 2 weeks measured on day 38 relative to control. It is filed as functional. Further details: scale not given: the % may be the effect or the level left. As to conditions: route intraperitoneal.

A short description of data set [14]: Antiproliferative activity against BRCA2 gene mutated human Capan1 cells after 72 hrs by SRB assay. The class given is functional, cell-based. The following applies: capan-1.
The mark [15] stands for this setting: Homo sapiens, HCC1937, 72 h, read-out: IC50.

T1 sequence (P09874 whole entry, the tested form may be a part): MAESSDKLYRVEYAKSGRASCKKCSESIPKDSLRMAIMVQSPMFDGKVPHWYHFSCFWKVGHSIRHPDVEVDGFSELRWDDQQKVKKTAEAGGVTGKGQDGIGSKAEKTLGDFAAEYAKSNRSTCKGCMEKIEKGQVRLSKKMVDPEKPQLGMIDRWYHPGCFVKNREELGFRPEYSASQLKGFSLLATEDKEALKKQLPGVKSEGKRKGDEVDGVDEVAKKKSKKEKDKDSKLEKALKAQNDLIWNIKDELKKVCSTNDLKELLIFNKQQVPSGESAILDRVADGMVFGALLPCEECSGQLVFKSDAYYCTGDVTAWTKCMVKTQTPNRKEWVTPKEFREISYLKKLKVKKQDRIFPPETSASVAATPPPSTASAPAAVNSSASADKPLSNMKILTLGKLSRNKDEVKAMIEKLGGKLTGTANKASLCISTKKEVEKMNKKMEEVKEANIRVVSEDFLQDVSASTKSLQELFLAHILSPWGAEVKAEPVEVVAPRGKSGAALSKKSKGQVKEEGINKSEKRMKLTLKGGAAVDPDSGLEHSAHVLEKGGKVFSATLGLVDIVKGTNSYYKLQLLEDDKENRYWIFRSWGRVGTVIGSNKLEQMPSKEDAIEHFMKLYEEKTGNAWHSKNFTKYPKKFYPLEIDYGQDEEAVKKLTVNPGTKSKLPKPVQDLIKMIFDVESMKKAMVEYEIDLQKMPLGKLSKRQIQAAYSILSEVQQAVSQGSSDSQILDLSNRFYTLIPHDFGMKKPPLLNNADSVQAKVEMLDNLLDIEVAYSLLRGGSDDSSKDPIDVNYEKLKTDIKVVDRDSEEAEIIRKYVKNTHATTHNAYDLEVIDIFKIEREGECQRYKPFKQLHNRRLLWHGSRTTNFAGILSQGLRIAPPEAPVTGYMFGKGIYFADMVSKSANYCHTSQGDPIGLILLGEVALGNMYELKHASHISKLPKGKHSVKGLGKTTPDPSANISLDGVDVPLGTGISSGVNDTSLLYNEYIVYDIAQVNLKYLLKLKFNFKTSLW

With `NC(=O)n1ccc2cccnc21`, the values for the IC50 in data set [1] (setting [15]), in [2] and in data set [3] were over 200 µM, 2.5 µM and over 200 µM, respectively.

As to `NC(=O)n1ccc2ccc(-c3ccccc3)nc21`, the IC50 – broadly, the concentration that inhibits the measured activity by half – in data set [1] (setting [15]) is over 200 µM; in data set [2] it was 0.27 µM; in data set [3], over 200 µM.

`COc1ccc(-c2ccc3ccn(C(N)=O)c3n2)cc1`: the figures for the IC50 in data set [1] (setting [15]), in data set [2] and in [3] were over 200 µM, 3.76 µM and 162 µM, respectively.

On to `CN(C)c1ccc(-c2ccc3ccn(C(N)=O)c3n2)cc1`, for which the IC50 in [1] (setting [15]) is over 200 µM; in data set [2] it was 0.88 µM; in data set [3], over 200 µM.

Regarding `NC(=O)n1ccc2ccc(-c3ccc(F)cc3)nc21`, the half-inhibitory concentration (IC50) in data set [1] (setting [15]) was over 200 µM; in [2], 0.27 µM; in data set [3] it was 61.1 µM.

For the molecule `NC(=O)n1ccc2ccc(-c3ccc(-c4ccccc4)cc3)nc21`, the IC50 in data set [1] (setting [15]) was over 200 µM; in data set [2] it was over 5 µM; in data set [3] it was 81.8 µM.

For the molecule `NC(=O)n1ccc2ccc(-c3ccccc3F)nc21`, in data set [2], the IC50 stood at 3 µM.

For the molecule `NC(=O)n1ccc2ccc(-c3ccc(F)c(C(=O)N4CCN(C(=O)C5CC5)CC4)c3)nc21`, the IC50 in [2] was 1.12 µM.

As for `NC(=O)n1ccc2ccc(-c3ccc[nH]3)nc21`, the IC50 in data set [1] (setting [15]) was 61.4 µM; in data set [2] it was 0.93 µM; in [3] it was 87.1 µM.

With `NC(=O)n1ccc2ccc(-c3ccc(C(=O)N4CCCCC4)cc3)nc21`, the IC50 in [1] (setting [15]) is 72.3 µM; in data set [2], 2.9 µM; in data set [3] it was 24.4 µM.

For the molecule `NC(=O)n1ccc2ccc(-c3ccc(CN4CCOCC4)cc3)nc21`, the IC50 in data set [1] (setting [15]) came to 17.2 µM; in [2] it was 2.1 µM; in data set [3], 15.9 µM.

Turning to `NC(=O)n1ccc2ccc(-c3ccc(CN4CCCCC4)cc3)nc21`, the Activity entry is reported as “Non-toxic” in data set [4], 1% in [5] and 36% in data set [6]. In addition, in data set [7], the EC50 (in general, the concentration that produces a half-maximal response) stood at 0.4 µM. The “Ratio IC50” value in data set [8] is reported as 3.9. Further, the IC50 was 11.2 µM in [9]; 2.9 µM in data set [10]; 19.4 µM in data set [1] (setting [15]); 0.07 µM in [2]; 22 µM in data set [3].

With `CN1CCN(Cc2ccc(-c3ccc4ccn(C(N)=O)c4n3)cc2)CC1`, the results for the IC50 in data set [1] (setting [15]), in [2] and in data set [3] were 41.2 µM, 1.56 µM and 54.5 µM, respectively.

In the case of `NC(=O)n1ccc2ccc(-c3ccc(CN4CCCC4)cc3)nc21`, the IC50 was 15 µM in data set [1] (setting [15]), 0.28 µM in data set [2] and 21.7 µM in data set [3].

Take `CN(C)Cc1ccc(-c2ccc3ccn(C(N)=O)c3n2)cc1`: the IC50 in [1] (setting [15]) came to 13.5 µM; in [2], 0.63 µM; in data set [3], 19.7 µM.

`NC(=O)n1ccc2ccc(N3CCCC3)nc21`: the IC50 in data set [1] (setting [15]) was over 200 µM; in data set [2] it was 0.22 µM; in data set [3], 83.8 µM.

Take `CN1CCN(c2ccc3ccn(C(N)=O)c3n2)CC1`: the figures for the IC50 in data set [1] (setting [15]), in [2] and in data set [3] were 111 µM, 0.77 µM and 138 µM, respectively.

For `NC(=O)n1ccc2ccc(N3CCCCC3)nc21`, the IC50 in data set [2] turned out to be 3 µM.

With `NC(=O)Cn1ccc2ccc(-c3ccc(CN4CCCC4)cc3)nc21`, the values for the IC50 in [1] (setting [15]), in [2] and in data set [3] were 182 µM, over 5 µM and 182 µM, respectively.

In the case of `O=C(c1cc(Cc2n[nH]c(=O)c3ccccc23)ccc1F)N1CCN(C(=O)C2CC2)CC1` [OLAPARIB], the Activity result in [11] was “Non-toxic”; in data set [12], 0%; in [13], 35%. In addition, the IC50 in [9] came to 41.9 µM; in data set [10] it was 1 µM; in [1] (Homo sapiens, HCC1937, 72 h), 10.3 µM; in data set [3] it was 6.3 µM.

`C[C@]1(c2nc3c(C(N)=O)cccc3[nH]2)CCCN1` [VELIPARIB]: the half-inhibitory concentration (IC50) in data set [14] amounted to 39.7 µM; in [1] (hcc1937, read-out: IC50), 97.2 µM.
